Values quoted from earlier work, collected in patent US20130096948A1, “METHODS FOR DIAGNOSIS, PROGNOSIS AND TREATMENT” (Nodality, Inc., priority 2009, published 2013).
Read-outs that look alike come from different tables or passages of the source.

| peak plasma concentration (Daunorubicin at 25 mg/m2) [ng/mL] | peak plasma concentration (Daunorubicin at 50 mg/m2) [ng/mL] | peak plasma concentration (high dose Cytarabine, 3 g/m2) [µM] | peak plasma concentration (standard dose of Cytarabine, 100 mg/m2) | SMILES |
| --- | --- | --- | --- | --- |
| 50 | 200 |  |  | COc1cccc2c1C(=O)c1c(O)c3c(c(O)c1C2=O)C[C@@](O)(C(C)=O)C[C@@H]3O[C@H]1C[C@H](N)[C@H](O)[C@H](C)O1 [Daunorubicin] |
|  |  | 2 | approximately 40 nM | Nc1ccn([C@@H]2O[C@H](CO)[C@@H](O)[C@@H]2O)c(=O)n1 [Cytarabine] |
